In patent publication US8802597B2, “Herbicidal pyrimidines” (E I du Pont de Nemours and Company, priority 2003, dated 2014):

How the values were obtained:
Assay type in all cases: in vivo
[1] = test system: rice flatsedge (Cyperus iria); assay: Test E flooded paddy water application; conditions: Flood, 21 days, scale 0 to 100 (0 no effect, 100 complete control)
How it was run: (§1)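 Response scored visually on a 0–100 scale (100 = complete control) at 21 days against untreated pots. Treatment was into paddy water 3 cm deep over silt loam, with plants at the 2.0–2.5-leaf stage, grown under 16-h light at 29.5/26.7 °C day/night.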

[2] = test system: water seeded rice seedlings (Oryza sativa cv. ‘Japonica-M202’); assay: Test E flooded paddy water application; conditions: Flood, 21 days, scale 0 to 100 (0 no effect, 100 complete control)
How it was run: as §1

[3] = test system: early watergrass (Echinochloa oryzoides); assay: Test E flooded paddy water application; conditions: Flood, 21 days, scale 0 to 100 (0 no effect, 100 complete control)
How it was run: as §1

[4] = test system: bearded (brdd.) sprangletop (Leptochloa fusca ssp. fascicularis); assay: Test E flooded paddy water application; conditions: Flood, 21 days, scale 0 to 100 (0 no effect, 100 complete control)
How it was run: as §1

[5] = test system: late watergrass (Echinochloa oryzicola); assay: Test E flooded paddy water application; conditions: Flood, 21 days, scale 0 to 100 (0 no effect, 100 complete control)
How it was run: as §1

[6] = test system: ducksalad (Heteranthera limosa); assay: Test E flooded paddy water application; conditions: Flood, 21 days, scale 0 to 100 (0 no effect, 100 complete control)
How it was run: as §1

[7] = test system: junglerice (Echinochloa colona); assay: Test E flooded paddy water application; conditions: Flood, 21 days, scale 0 to 100 (0 no effect, 100 complete control)
How it was run: as §1

[8] = test system: transplanted rice seedlings (Oryza sativa cv. ‘Japonica-M202’); assay: Test E flooded paddy water application; conditions: Flood, 21 days, scale 0 to 100 (0 no effect, 100 complete control)
How it was run: as §1

[9] = test system: smallflower umbrella sedge (Cyperus difformis); assay: Test E flooded paddy water application; conditions: Flood, 21 days, scale 0 to 100 (0 no effect, 100 complete control)
How it was run: as §1

[10] = test system: barnyardgrass (Echinochloa crus-galli); assay: Test E flooded paddy water application; conditions: Flood, 21 days, scale 0 to 100 (0 no effect, 100 complete control)
How it was run: as §1

[11] = test system: purple redstem (Ammannia coccinea); assay: Test E flooded paddy water application; conditions: Flood, 21 days, scale 0 to 100 (0 no effect, 100 complete control)
How it was run: as §1

[12] = test system: giant foxtail (Setaria faberi); assay: Test A pre/postemergence
How it was run: (§2)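 Visual injury scores on a 0–100 scale, 100 being complete control, were assigned roughly ten days after treatment by comparison with untreated greenhouse controls. Test chemicals, formulated with surfactant in non-phytotoxic solvent, were sprayed onto soil preemergence and onto 1–2-leaf plants 2–10 cm tall postemergence.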

[13] = test system: velvetleaf (Abutilon theophrasti); assay: Test A pre/postemergence
How it was run: as §2

[14] = test system: redroot pigweed (Amaranthus retroflexus); assay: Test A pre/postemergence
How it was run: as §2

[15] = test system: morningglory (Ipomoea spp.); assay: Test A pre/postemergence
How it was run: as §2

[16] = test system: crabgrass (Digitaria sanguinalis); assay: Test A pre/postemergence
How it was run: as §2

[17] = test system: barnyardgrass (Echinochloa crus-galli); assay: Test A pre/postemergence
How it was run: as §2

[18] = Postemergence, 125 g ai/ha, 0 to 100 scale (0 no effect, 100 complete control)
[19] = Postemergence, 500 g ai/ha, 0 to 100 scale (0 no effect, 100 complete control)
[20] = Preemergence, 125 g ai/ha, 0 to 100 scale where 0 is no effect and 100 is complete control, approximately ten days
[21] = Preemergence, 500 g ai/ha, 0 to 100 scale where 0 is no effect and 100 is complete control, approximately ten days

`Nc1nc(-c2ccc(Cl)cc2)nc(C(=O)OCc2ccccc2)c1Cl` [Compound 118] was tested, and the “Flatsedge, Rice plant response rating” value ([1]; 32 g ai/ha) was 95, the “Flatsedge, Rice plant response rating” value ([1]; 64 g ai/ha) was 95 and the “Flatsedge, Rice plant response rating” value ([1]; 125 g ai/ha) was 95. For the same molecule, the “Flatsedge, Rice plant response rating” value ([1]; 250 g ai/ha) was 100, the “Plant response rating, Flatsedge, Rice” value ([1]; 16 g ai/ha) was 85 and the “Rice, Water Seeded plant response rating” value ([2]; 32 g ai/ha) was 0. The “Rice, Water Seeded plant response rating” value ([2]; 64 g ai/ha) was 0, the “Rice, Water Seeded plant response rating” value ([2]; 125 g ai/ha) was 0 and the “Rice, Water Seeded plant response rating” value ([2]; 250 g ai/ha) was 0. For the same molecule, the “Plant response rating, Rice, Water Seeded” value ([2]; 16 g ai/ha) was 0, the “Watergrass, Early plant response rating” value ([3]; 32 g ai/ha) was 0 and the “Watergrass, Early plant response rating” value ([3]; 64 g ai/ha) was 0. For the same molecule, the “Watergrass, Early plant response rating” value ([3]; 125 g ai/ha) was 0, the “Watergrass, Early plant response rating” value ([3]; 250 g ai/ha) was 0 and the “Plant response rating, Watergrass, Early” value ([3]; 16 g ai/ha) was 0. For the same molecule, the “Sprangletop, Brdd. plant response rating” value ([4]; 32 g ai/ha) was 0, the “Sprangletop, Brdd. plant response rating” value ([4]; 64 g ai/ha) was 0 and the “Sprangletop, Brdd. plant response rating” value ([4]; 125 g ai/ha) was 70. The “Sprangletop, Brdd. plant response rating” value ([4]; 250 g ai/ha) was 85, the “Plant response rating, Sprangletop, Brdd.” value ([4]; 16 g ai/ha) was 0 and the “Watergrass, Late plant response rating” value ([5]; 32 g ai/ha) was 0. For the same molecule, the “Watergrass, Late plant response rating” value ([5]; 64 g ai/ha) was 0, the “Watergrass, Late plant response rating” value ([5]; 125 g ai/ha) was 0 and the “Watergrass, Late plant response rating” value ([5]; 250 g ai/ha) was 0. For the same molecule, the “Plant response rating, Watergrass, Late” value ([5]; 16 g ai/ha) was 0, the “Ducksalad plant response rating” value ([6]; 32 g ai/ha) was 100 and the “Ducksalad plant response rating” value ([6]; 64 g ai/ha) was 100. For the same molecule, the “Ducksalad plant response rating” value ([6]; 125 g ai/ha) was 100, the “Ducksalad plant response rating” value ([6]; 250 g ai/ha) was 100 and the “Plant response rating, Ducksalad” value ([6]; 16 g ai/ha) was 100. For the same molecule, the “Junglerice plant response rating” value ([7]; 32 g ai/ha) was 40, the “Junglerice plant response rating” value ([7]; 64 g ai/ha) was 45 and the “Junglerice plant response rating” value ([7]; 125 g ai/ha) was 65. The “Junglerice plant response rating” value ([7]; 250 g ai/ha) was 65, the “Plant response rating, Junglerice” value ([7]; 16 g ai/ha) was 0 and the “Rice, Transplanted plant response rating” value ([8]; 32 g ai/ha) was 0. For the same molecule, the “Rice, Transplanted plant response rating” value ([8]; 64 g ai/ha) was 0, the “Rice, Transplanted plant response rating” value ([8]; 125 g ai/ha) was 0 and the “Rice, Transplanted plant response rating” value ([8]; 250 g ai/ha) was 0. The “Plant response rating, Rice, Transplanted” value ([8]; 16 g ai/ha) was 0, the “Sedge, Umbrella plant response rating” value ([9]; 32 g ai/ha) was 95 and the “Sedge, Umbrella plant response rating” value ([9]; 64 g ai/ha) was 100. The “Sedge, Umbrella plant response rating” value ([9]; 125 g ai/ha) was 100, the “Sedge, Umbrella plant response rating” value ([9]; 250 g ai/ha) was 100 and the “Plant response rating, Sedge, Umbrella” value ([9]; 16 g ai/ha) was 85. The “Barnyardgrass plant response rating” value ([10]; 32 g ai/ha) was 0, the “Barnyardgrass plant response rating” value ([10]; 64 g ai/ha) was 0 and the “Barnyardgrass plant response rating” value ([10]; 125 g ai/ha) was 0. The “Barnyardgrass plant response rating” value ([10]; 250 g ai/ha) was 0, the “Plant response rating, Barnyardgrass” value ([10]; 16 g ai/ha) was 0 and the “Redstem plant response rating” value ([11]; 32 g ai/ha) was 20. The “Redstem plant response rating” value ([11]; 64 g ai/ha) was 30, the “Redstem plant response rating” value ([11]; 125 g ai/ha) was 50 and the “Redstem plant response rating” value ([11]; 250 g ai/ha) was 85. For the same molecule, the “Plant response rating, Redstem” value ([11]; 16 g ai/ha) was 0, the “Plant response rating, Foxtail, Giant” value [12, 18] was 0 and the “Plant response rating, Foxtail, Giant” value [12, 19] was 15. For the same molecule, the “Plant response rating, Foxtail, Giant” value [12, 20] was 0, the “Plant response rating, Foxtail, Giant” value [12, 21] was 15 and the “Plant response rating, Velvetleaf” value [13, 18] was 90. For the same molecule, the “Plant response rating, Velvetleaf” value [13, 19] was 95, the “Plant response rating, Velvetleaf” value [13, 20] was 0 and the “Plant response rating, Velvetleaf” value [13, 21] was 15. For the same molecule, the “Plant response rating, Pigweed” value [14, 18] was 60, the “Plant response rating, Pigweed” value [14, 19] was 75 and the “Plant response rating, Pigweed” value [14, 20] was 10. For the same molecule, the “Plant response rating, Pigweed” value [14, 21] was 55, the “Plant response rating, Morningglory” value [15, 18] was 65 and the “Plant response rating, Morningglory” value [15, 19] was 70. For the same molecule, the “Plant response rating, Morningglory” value [15, 20] was 0, the “Plant response rating, Morningglory” value [15, 21] was 0 and the “Plant response rating, Crabgrass” value [16, 18] was 10. The “Plant response rating, Crabgrass” value [16, 19] was 20, the “Plant response rating, Crabgrass” value [16, 20] was 10 and the “Plant response rating, Crabgrass” value [16, 21] was 25. For the same molecule, the “Plant response rating, Barnyardgrass” value [17, 18] was 0, the “Plant response rating, Barnyardgrass” value [17, 19] was 0 and the “Plant response rating, Barnyardgrass” value [17, 20] was 0. For the same molecule, the “Plant response rating, Barnyardgrass” value [17, 21] was 10.
